According to patent US5910575A, “Immunoassay and monoclonal antibodies for urinary cortisol” (Immunotech, priority 1995, dated 1999):

Key:
[1] = target: anti-cortisol monoclonal antibody Immu 473 (IMMU-473, CNCM I-1532), obtained against the immunogen cortisol-3-CMO (syn)-BSA; assay: Displacement of the cortisol-3-CMO (anti)-[125I] iodohistamine tracer from the monoclonal antibody (liquid phase radioimmunoassay); format: binding, mouse
Method: (§1) Selection is carried out by a liquid phase radioimmunoassay technique starting with the culture supernatant. The supernatants possibly containing anti-cortisol antibodies are incubated with a solution of radioactive cortisol (tritiated cortisol or cortisol derivative labelled with radioactive iodine: cortisol-3-CMO (anti)-[^125 I] iodohistamine). If anti-cortisol antibodies are present, they will bind the radioactive steroid. After incubation with charcoal-dextran and centrifugation to remove the free radioactivity and all the small molecules not fixed to the antibodies, a sample of the supernatant (bound fraction) is removed and counted.
(§2) The affinities of the monoclonal antibodies are measured by displacement of the cortisol-3-CMO (anti)-[^125 I] iodohistamine tracer with the two labelling precursors: cortisol-3-CMO (anti)-histamine and cortisol-3-CMO (syn)-histamine. The affinity is estimated (in the form of the IC50 value) according to the concentration displacing half of the tracer, since the tracer is present in a small quantity compared with the other constituents.

[2] = target: anti-cortisol monoclonal antibody Immu 482, obtained against the immunogen cortisol-3-CMO (syn)-BSA; assay: as above; format: binding, mouse
Method: as §1, §2

[3] = tracer cortisol-3-CMO (anti)-[125I] iodohistamine, concentration displacing half of the tracer
[4] = IC50 of cortisol-3-CMO (anti)-histamine divided by IC50 of cortisol-3-CMO (syn)-histamine

C[C@]12CC/C(=N\OCC(=O)NCCc3c[nH]cn3)C=C1CC[C@@H]1[C@@H]2[C@@H](O)C[C@@]2(C)[C@H]1CC[C@]2(O)C(=O)CO [Cortisol-3-CMO (anti)-histamine, cortisol-3-carboxymethyloxime (anti)-histamine]
Displacement of the tracer by Cortisol-3-CMO (anti)-histamine IC50 [1, 3]: 0.496 ng/mL
Displacement of the tracer by Cortisol-3-CMO (anti)-histamine IC50 [2, 3]: 0.468 ng/mL

C[C@]12CC/C(=N/OCC(=O)NCCc3c[nH]cn3)C=C1CC[C@@H]1[C@@H]2[C@@H](O)C[C@@]2(C)[C@H]1CC[C@]2(O)C(=O)CO [Cortisol-3-CMO (syn)-histamine, cortisol-3-carboxymethyloxime (syn)-histamine]
Ratio IC50 anti/IC50 syn [1, 4]: 2.73
Displacement of the tracer by Cortisol-3-CMO (syn)-histamine IC50 [1, 3]: 0.182 ng/mL
Ratio IC50 anti/IC50 syn [2, 4]: 2.66
Displacement of the tracer by Cortisol-3-CMO (syn)-histamine IC50 [2, 3]: 0.176 ng/mL
